According to ChEMBL document CHEMBL4842348 (J Med Chem, 2021):
Converted amounts (≈) assume the structure as drawn.

Assay: Solubility of the compound in pH 7 phosphate buffer by shake-flask method
Type: physicochemical
Conditions: not given

| solubility thermodynamic [µM] | SMILES |
| --- | --- |
| 6 (≈ 4.28 µg/mL) | COc1ccc(-c2ccc(C(=O)O)cc2C)cc1-c1cnc(C(F)(F)F)nc1CN1C(=O)O[C@H](c2cc(C(F)(F)F)cc(C(F)(F)F)c2)[C@@H]1C |
| 43 (≈ 29.6 µg/mL) | COc1ccc(-c2ccc(C(=O)O)cc2C)cc1-c1cnc(N(C)C)nc1CN1C(=O)O[C@H](c2cc(C(F)(F)F)cc(C(F)(F)F)c2)[C@@H]1C |
| 52 (≈ 35.1 µg/mL) | COc1ncc(-c2cc(-c3ccc(C(=O)O)cc3C)ccc2OC)c(CN2C(=O)O[C@H](c3cc(C(F)(F)F)cc(C(F)(F)F)c3)[C@@H]2C)n1 |
| 8 (≈ 5.75 µg/mL) | COc1ccc(-c2ccc(C(=O)O)cc2C)cc1-c1cnc(N2CC(F)C2)nc1CN1C(=O)O[C@H](c2cc(C(F)(F)F)cc(C(F)(F)F)c2)[C@@H]1C |

Assay: Lipophilicity, logD of the compound at pH 7.3 by HPLC analysis
Type: physicochemical
Conditions: buffer

| SMILES | logD |
| --- | --- |
| COc1ccc(-c2ccc(C(=O)O)cc2C)cc1-c1cnc(N2CCOCC2)nc1CN1C(=O)O[C@H](c2cc(C(F)(F)F)cc(C(F)(F)F)c2)[C@@H]1C | 4.8 |
| COc1ccc(-c2ccc(C(=O)O)cc2C)cc1-c1cnc(N(C)C)nc1CN1C(=O)O[C@H](c2cccc(Cl)c2)[C@@H]1C | 4 |
| COc1cc(F)c(C(C)C)cc1-c1ccc(F)cc1[C@@H]1CC[C@H]2[C@@H](c3cc(C(F)(F)F)cc(C(F)(F)F)c3)OC(=O)N12 | 7 |
| COc1ccc(-c2ccc(C(=O)O)cc2C)cc1-c1cnc(N(C)C)nc1CN1C(=O)O[C@H](c2cc(F)cc(F)c2)[C@@H]1C | 3.8 |
| COc1cc(F)c(C(C)C)cc1-c1cnc(N(C)C)cc1[C@@H]1CC[C@H]2[C@@H](c3cc(C(F)(F)F)cc(C(F)(F)F)c3)OC(=O)N12 | 7 |
| COc1cc(F)c(C(C)C)cc1-c1ccc(C(F)(F)F)cc1[C@@H]1CC[C@H]2[C@@H](c3cc(Cl)cc(C(F)(F)F)c3)OC(=O)N12 | 6.5 |
| COc1cc(F)c(C(C)C)cc1-c1ccc(C(F)(F)F)cc1[C@@H]1CC[C@H]2[C@@H](c3cc(Cl)cc(Cl)c3)OC(=O)N12 | 6.1 |
| COc1ncc(-c2ccc(C(=O)O)cc2C)cc1-c1cnc(C(F)(F)F)nc1CN1C(=O)O[C@H](c2cc(C(F)(F)F)cc(C(F)(F)F)c2)[C@@H]1C | 4.9 |
| COc1ccc(C(C)CC(=O)O)cc1-c1ccc(C(F)(F)F)cc1[C@@H]1CC[C@H]2[C@@H](c3cc(C(F)(F)F)cc(C(F)(F)F)c3)OC(=O)N12 (stereo partly specified) | 5 |
| COc1ccc([C@@H]2C[C@@H](O)[C@@H](O)C2)cc1-c1ccc(C(F)(F)F)cc1[C@@H]1CC[C@H]2[C@@H](c3cc(C(F)(F)F)cc(C(F)(F)F)c3)OC(=O)N12 | 5.7 |
| COc1ccc(-c2ccc(C(=O)O)cc2C)cc1-c1cnc(N(C)C)nc1CN1C(=O)O[C@H](c2cccc(C(F)(F)F)c2)[C@@H]1C | 4.1 |
| COc1ccc(C2CNC(=O)OC2(C)C)cc1-c1ccc(C(F)(F)F)cc1[C@@H]1CC[C@H]2[C@@H](c3cc(C(F)(F)F)cc(C(F)(F)F)c3)OC(=O)N12 (stereo partly specified) | 5.7 |
| COc1ccc(-c2ccc(C(=O)O)cc2C)cc1-c1cnc(N(C)C)nc1CN1C(=O)O[C@H](c2cncc(C(F)(F)F)c2)[C@@H]1C | 3.3 |
| COc1ccc(-c2ccc(C(=O)O)cc2C)cc1-c1cnc(N(C)C)nc1CN1C(=O)O[C@H](c2ccc(OC(F)(F)F)cc2)[C@@H]1C | 4.3 |
| COc1cc(F)c(C(C)C)cc1-c1ccc(C(F)(F)F)cc1[C@@H]1CC[C@H]2[C@@H](c3cccc(C(F)(F)F)c3)OC(=O)N12 | 6.1 |
| COc1cc(F)c(C(C)C)cc1-c1ccc(C(F)(F)F)cc1[C@@H]1CC[C@H]2[C@@H](c3cc(C)cc(C(F)(F)F)c3)OC(=O)N12 | 7 |

| SMILES | logD |
| --- | --- |
| COc1cc(F)c(C(C)C)cc1-c1ccc(C(F)(F)F)cc1[C@@H]1CC[C@H]2[C@@H](c3cc(F)cc(C(F)(F)F)c3)OC(=O)N12 | 6.3 |
| COc1ccc(-c2ccc(C(=O)O)cc2C)cc1-c1cnc(N(C)C)nc1CN1C(=O)O[C@H](c2ccnc(C(F)(F)F)c2)[C@@H]1C | 3.2 |
| COc1ncc(-c2ccc(C(=O)O)cc2C)cc1-c1ccc(C(F)(F)F)cc1CN1C(=O)O[C@H](c2cc(C(F)(F)F)cc(C(F)(F)F)c2)[C@@H]1C | 5.4 |
| COc1ccc(-c2ccc(C(=O)O)cc2C)cc1-c1cnc(N(C)C)nc1CN1C(=O)O[C@H](c2cc(Cl)cc(Cl)c2)[C@@H]1C | 4.6 |
| COc1cc(F)c(-c2ccc(-c3nnc(N)o3)cc2C)cc1-c1ccc(C(F)(F)F)cc1[C@@H]1CC[C@H]2[C@@H](c3cc(C)cc(C(F)(F)F)c3)OC(=O)N12 | 6.6 |
| COc1ccc(-c2ccc(C(=O)O)cc2C)cc1-c1cnc(N(C)C)nc1CN1C(=O)O[C@H](c2cccc(C(F)(F)F)n2)[C@@H]1C | 3.8 |
| COc1ncc(-c2ccc(C(=O)O)cc2C)cc1-c1cnc(C(F)(F)F)cc1CN1C(=O)O[C@H](c2cc(C(F)(F)F)cc(C(F)(F)F)c2)[C@@H]1C | 4.5 |
| COc1ccc([C@H]2CCC(=O)N[C@@H]2C)cc1-c1ccc(C(F)(F)F)cc1[C@@H]1CC[C@H]2[C@@H](c3cc(C(F)(F)F)cc(C(F)(F)F)c3)OC(=O)N12 | 5.9 |
| COc1ccc([C@H]2CC[C@H](C(=O)O)CC2)cc1-c1ccc(C(F)(F)F)cc1[C@@H]1CC[C@H]2[C@@H](c3cc(C(F)(F)F)cc(C(F)(F)F)c3)OC(=O)N12 | 5.6 |
| COc1ccc(-c2ccc(C(=O)O)cc2C)cc1-c1cnc(N(C)C)nc1CN1C(=O)O[C@H](c2cccc(OC(F)(F)F)c2)[C@@H]1C | 4.3 |
| COc1cc(F)c(C(C)C)cc1-c1cnc(N(C)C)nc1[C@@H]1CC[C@H]2[C@@H](c3cc(C(F)(F)F)cc(C(F)(F)F)c3)OC(=O)N12 | 7 |
| COc1cc(F)c(C(C)C)cc1-c1ccc(C(F)(F)F)cc1[C@@H]1CC[C@H]2[C@@H](c3cc(C(F)(F)F)cc(C(F)(F)F)c3)OC(=O)N12 | 7.1 |
| COc1ccc(-c2ccc(C(=O)O)cc2C)cc1-c1cnc(N(C)C)nc1CN1C(=O)O[C@H](c2cc(Cl)cc(C(F)(F)F)c2)[C@@H]1C | 4.6 |
| COc1ccc([C@H]2C[C@H](C(=O)O)C2)cc1-c1ccc(C(F)(F)F)cc1[C@@H]1CC[C@H]2[C@@H](c3cc(C(F)(F)F)cc(C(F)(F)F)c3)OC(=O)N12 | 5.1 |
| COc1ccc(CCC(=O)O)cc1-c1ccc(C(F)(F)F)cc1[C@@H]1CC[C@H]2[C@@H](c3cc(C(F)(F)F)cc(C(F)(F)F)c3)OC(=O)N12 | 4.7 |

Other lines, results leading:

| logD | SMILES |
| --- | --- |
| 4.9 | COc1ccc(-c2ccc(C(=O)O)cc2C)cc1-c1cnc(C(F)(F)F)nc1CN1C(=O)O[C@H](c2cc(C(F)(F)F)cc(C(F)(F)F)c2)[C@@H]1C |
| 5.8 | COc1ccc(-c2ccc(C(=O)O)cc2C)cc1-c1ccc(N(C)C)nc1[C@@H]1CC[C@H]2[C@@H](c3cc(C(F)(F)F)cc(C(F)(F)F)c3)OC(=O)N12 |
| 5.1 | COc1cc(F)c(-c2ccc(C(=O)O)cc2C)cc1-c1ccc(C(F)(F)F)cc1[C@@H]1CC[C@H]2[C@@H](c3cc(F)cc(C(F)(F)F)c3)OC(=O)N12 |
| 6 | COc1cc(F)c(-c2ccc(C(=O)O)cc2C)cc1-c1cc(C)c(C(F)(F)F)cc1[C@@H]1CC[C@H]2[C@@H](c3cc(C(F)(F)F)cc(C(F)(F)F)c3)OC(=O)N12 |
| 4.8 | COc1cc(F)c(-c2ccc(C(=O)O)cc2C)cc1-c1cnc(C2CC2)cc1[C@@H]1CC[C@H]2[C@@H](c3cc(C(F)(F)F)cc(C(F)(F)F)c3)OC(=O)N12 |
| 5.1 | COc1cc(F)c(-c2ccc(C(=O)O)cc2C)cc1-c1ccc(F)cc1[C@@H]1CC[C@H]2[C@@H](c3cc(C(F)(F)F)cc(C(F)(F)F)c3)OC(=O)N12 |
| 4.8 | COc1ccc(-c2ccc(C(=O)O)cc2C)cc1-c1cnc(N(C)C)nc1CN1C(=O)O[C@H](c2cc(C(F)(F)F)cc(C(F)(F)F)c2)[C@@H]1C |
| 6.9 | COc1cc(F)c(C(C)C)cc1-c1ccc(N(C)C)nc1[C@@H]1CC[C@H]2[C@@H](c3cc(C(F)(F)F)cc(C(F)(F)F)c3)OC(=O)N12 |
| 5 | COc1ncc(-c2ccc(C(=O)O)cc2C)cc1-c1ccc(C(F)(F)F)cc1[C@@H]1CC[C@H]2[C@@H](c3cc(F)cc(C(F)(F)F)c3)OC(=O)N12 |
| 6 | COc1ccc(-c2ccc(C(=O)O)cc2C)cc1-c1c(C)cc(C(F)(F)F)cc1[C@@H]1CC[C@H]2[C@@H](c3cc(C(F)(F)F)cc(C(F)(F)F)c3)OC(=O)N12 |
| 4.2 | COc1ncc(-c2cc(-c3ccc(C(=O)O)cc3C)ccc2OC)c(CN2C(=O)O[C@H](c3cc(C(F)(F)F)cc(C(F)(F)F)c3)[C@@H]2C)n1 |
| 4.8 | COc1ccc(-c2ccc(C(=O)O)cc2C)cc1-c1cnc(C(F)(F)F)cc1[C@@H]1CC[C@H]2[C@@H](c3cc(C(F)(F)F)cc(C(F)(F)F)c3)OC(=O)N12 |
| 4.8 | COc1ccc(-c2c(C)cc(C(=O)O)cc2C)cc1-c1ncc(C(F)(F)F)cc1[C@@H]1CC[C@H]2[C@@H](c3cc(C(F)(F)F)cc(C(F)(F)F)c3)OC(=O)N12 |
| 4.7 | COc1ccc(-c2ccc(C(=O)O)cc2C)cc1-c1cnc(C(F)(F)F)cc1CN1C(=O)O[C@H](c2cc(C(F)(F)F)cc(C(F)(F)F)c2)[C@@H]1C |
| 4.5 | CCc1ncc(-c2cc(-c3ccc(C(=O)O)cc3C)ccc2OC)c(CN2C(=O)O[C@H](c3cc(C(F)(F)F)cc(C(F)(F)F)c3)[C@@H]2C)n1 |
| 4.5 | COc1ncc(-c2ccc(C(=O)O)cc2C)cc1-c1ncc(C(F)(F)F)cc1[C@@H]1CC[C@H]2[C@@H](c3cc(C(F)(F)F)cc(C(F)(F)F)c3)OC(=O)N12 |
| 4.6 | COc1ccc(-c2ccc(C(=O)O)cc2C)cc1-c1cnc(N2CC(F)C2)nc1CN1C(=O)O[C@H](c2cc(C(F)(F)F)cc(C(F)(F)F)c2)[C@@H]1C |
| 4.7 | COc1ncc(-c2ccc(C(=O)O)cc2C)cc1-c1ccc(C(F)(F)F)cc1[C@@H]1CC[C@H]2[C@@H](c3cccc(C(F)(F)F)c3)OC(=O)N12 |
| 5.4 | COc1ccc(-c2c(C)cc(C(=O)O)cc2C)cc1-c1ccc(C(F)(F)F)cc1[C@@H]1CC[C@H]2[C@@H](c3cc(C(F)(F)F)cc(C(F)(F)F)c3)OC(=O)N12 |
| 4.6 | COc1ccc(-c2ccc(C(=O)O)cc2C)cc1-c1ncc(C(F)(F)F)cc1[C@@H]1CC[C@H]2[C@@H](c3cc(C(F)(F)F)cc(C(F)(F)F)c3)OC(=O)N12 |
| 5.2 | COc1ccc(-c2ccc(C(=O)O)cc2C)cc1-c1cnc(N2CCCC2)nc1CN1C(=O)O[C@H](c2cc(C(F)(F)F)cc(C(F)(F)F)c2)[C@@H]1C |
| 4.6 | COc1ncc(-c2ccc(C(=O)O)cc2C)cc1-c1cnc(C(F)(F)F)cc1[C@@H]1CC[C@H]2[C@@H](c3cc(C(F)(F)F)cc(C(F)(F)F)c3)OC(=O)N12 |
| 5.8 | COc1ncc(-c2ccc(C(=O)O)cc2C)cc1-c1cc(C)c(C(F)(F)F)cc1[C@@H]1CC[C@H]2[C@@H](c3cc(C(F)(F)F)cc(C(F)(F)F)c3)OC(=O)N12 |
| 5.7 | COc1ncc(-c2ccc(C(=O)O)cc2C)cc1-c1c(C)cc(C(F)(F)F)cc1[C@@H]1CC[C@H]2[C@@H](c3cc(C(F)(F)F)cc(C(F)(F)F)c3)OC(=O)N12 |
| 5.8 | COc1ncc(-c2c(C)cc(C(=O)O)cc2C)cc1-c1ccc(C(F)(F)F)nc1[C@@H]1CC[C@H]2[C@@H](c3cc(C(F)(F)F)cc(C(F)(F)F)c3)OC(=O)N12 |
| 4.6 | COc1ccc(-c2ccc(C(=O)O)cc2C)cc1-c1cnc(N(C)C)cc1[C@@H]1CC[C@H]2[C@@H](c3cc(C(F)(F)F)cc(C(F)(F)F)c3)OC(=O)N12 |
